From patent US9974759B2, “Beta 2 adrenoceptor antagonists for treating orthostatic hypotension” (Indiana University Research & Technology Corporation, priority 2013, dated 2018)
Entries after “also recorded” stand apart in the source; their conditions may differ.

Experiments:
humans = details: doses up to 80 mg orally, no continuous BP monitoring; cited from earlier work
mongrel dogs = test: Ambulatory monitoring of blood pressure in dogs (radiotransmitter, Protocol 1); details: for BP response following simultaneous termination of sympathovagal firing and postural change: FIGS. 5A-5I, example dog, baseline drop from 110 mmHg to 80 mmHg; for BP: all eight dogs, random effects model, oral carvedilol 12 mg twice daily for a week, or 7 days of ICI infusion (3.1 μg/kg/hr), baseline 125.60; for percentage of hypotensive episodes (mean systolic pressure <100 mmHg in one min): minute-by-minute data, all dogs, baseline 7.1%
Protocol: (§1) Eight mongrel dogs (4 male, weighing 20-30 kg) were used in this Example. Left thoracotomy was performed through the first intercostal space for the implantation of a D70-CCTP radiotransmitter manufactured by the Data Sciences International (DSI, St Paul, Minn.). The first pair of bipolar electrodes was inserted beneath the nerve sheath of the left stellate ganglion. A second pair of bipolar leads was attached to the left thoracic vagal nerve at a level of 4 to 5 cm above the aortic arch. The third lead, a catheter with a pressure sensor, was inserted directly into the subclavian artery for blood pressure (BP) recording. The transmitter and ground wires were inserted into a subcutaneous pocket.
After 2 weeks of recovery, the radiotransmitter was turned on to record nerve signals and BP at baseline. The pre-implantation BP was calibrated against the ambient pressure in the vivarium. There was a 12-hour daylight cycle in the vivarium staring at 7 AM each day. After the baseline (stellate ganglion nerve activity (SGNA), vagal nerve activity (VNA), and BP) recordings, the dogs were given oral carvedilol, 12 mg twice daily for a week. The drugs were then washed out for a week and baseline recordings were re-collected. […] The pump is designed to empty its contents over 7 days at a rate of 10 μl/hr. Therefore, the infusion rate was 3.1 μg/kg/hr for a 30 kg dog. […] The data collected at days 6-7 of the infusion were used for analyses.
The nerve activities were integrated minute-by-minute. Because BP recordings are prone to motion artifacts, the data of all dogs included in Protocol 1 was manually reviewed and the first 10 noise-free minutes of each hour were selected for analyses. The mean BP was also analyzed minute-by-minute during the same period. The SGNA was plotted against the VNA on an XY graph to visualize the patterns of activation. Pearson correlation coefficients between these two nerve activities were calculated. The data obtained from the manual analyses were subjected to further statistical analyses as described below.
To determine the relationship between BP, heart rate (HR) and ANS activities, 1-minute and 4-hour averages for each dog were calculated on each day of data collection starting at midnight. Pearson correlation coefficients between SGNA and VNA were also calculated within each 4-hour interval. To analyze data from any given individual dog, multiple linear regression with systolic BP as the dependent variable and ANS activities as the independent variables based on 1-minute average data were used. To analyze data from all dogs and the 4-hour average data, a random effects model with dog as the random effect was used with the same dependent and independent variables, plus HR and the Pearson correlation coefficient as additional independent variables. […] A cubic smoothing spline was also used to fit BP versus hour for one dog. Statistical analysis was performed with IBM SPSS Statistics 19 (Armonk, N.Y.) and SAS version 9.3 (SAS Institute Inc., Cary, N.C.).

left stellate ganglion = test: Ambulatory recording of stellate ganglion nerve activity (SGNA); details: carvedilol 12 mg twice daily for a week or ICI infusion 7 days; immediately before drug 209.40
Protocol: as §1
(§2) After 2 weeks of recovery, the radiotransmitter was turned on to record nerve signals and BP at baseline. The pre-implantation BP was calibrated against the ambient pressure in the vivarium. […]
(§3) The nerve activities were integrated minute-by-minute. […] The mean BP was also analyzed minute-by-minute during the same period. […] Pearson correlation coefficients between these two nerve activities were calculated. […]
(§4) To determine the relationship between BP, heart rate (HR) and ANS activities, 1-minute and 4-hour averages for each dog were calculated on each day of data collection starting at midnight. Pearson correlation coefficients between SGNA and VNA were also calculated within each 4-hour interval. […]

[1] = tested on: rat model of orthostatic hypotension; details: no definite beneficial effect shown; cited from earlier work
[2] = tested on: left thoracic vagal nerve; test: Ambulatory recording of vagal nerve activity (VNA); details: carvedilol 12 mg twice daily for a week or ICI infusion 7 days; immediately before drug 192.96
Protocol: as §1, §2, §3, §4

| Compound | effect on BP or heart rate (humans) | BP response following simultaneous termination of sympathovagal firing and postural change (mongrel dogs; listed as ICI) | BP (mongrel dogs) | percentage of hypotensive episodes (mean systolic pressure <100 mmHg in one min) (mongrel dogs) | iSGNA (integrated stellate ganglion nerve activity) (left stellate ganglion) | effect on orthostatic symptoms [1] | iVNA (integrated vagal nerve activity) [2] | BP response following simultaneous termination of sympathovagal firing and postural change (mongrel dogs) |
| --- | --- | --- | --- | --- | --- | --- | --- | --- |
| Cc1ccc(OCC(O)C(C)NC(C)C)c2c1CCC2 (stereo not drawn) [ICI-118,551, 3-(isopropylamino)-1-[(7-methyl-4-indanyl)oxy]butan-2-ol] | does not alter BP or heart rate | no change in BP; also recorded: not followed by hypotension | 133.00 (95% CI: 124.85 to 141.14) mmHg | 1.3% | 281.23 (95% CI: 230.30 to 332.16) mV-s | had a tendency of improving orthostatic symptoms | 220.18 (95% CI: 156.46 to 283.90) mV-s | – |
| COc1ccccc1OCCNCC(O)COc1cccc2[nH]c3ccccc3c12 (stereo not drawn) [carvedilol] | – | – | 124.8 (95% CI: 116.63 to 132.97) mmHg | 7.8% | 258.47 (95% CI: 207.20 to 309.75) mV-s | – | 186.68 mV-s | drop in BP from 100 mmHg to 80 mmHg; also recorded: followed by hypotension |
